Reference: patent publication US20040019118A1, “NMDA receptor antagonists and their use in inhibiting abnormal hyperphosphorylation of microtubule associated protein tau” (priority 2002, published 2004)
Entries after “also recorded” stand apart in the source; their conditions may differ.

Legend:
tau = assay: Tau phosphorylation by radioimmuno-dot-blots and 125I-Western blots of slice homogenates; type: cell-based, rat; details: 0.3 mM glutamate, 1 h
Protocol: (§1) The rats were anesthetized with ketamine (100 mg/kg body weight) and decapitated and the hippocampi were dissected out and sliced into 400 um coronal sections by a McIllwain tissue chopper. Select slices with uninterrupted bright transparent neuronal layers were plated, 1-3 slices/filter, onto Millicell CM filters (Millipore, Bedford, Mass.). […] After 7 DIV, the cultures were maintained in physiological potassium containing 5% horse serum medium at 35° C. for at least 20 days before any treatment was applied. When the slices were treated, the reagents were applied into the culture medium. At different time points, the slices collected with a brush were washed twice in homogenizing buffer (50 mM HEPES, pH 7.0, 10 mM β-merceptoethanol [BME], 1 mM EDTA, 1 mM EGTA, 0.1 mM phenylmethyl sulfonyl fluoride [PMSF], 2.0 mM benzamidine and 2.0 μg/ml each of aprotinin, leupeptin and pepstatin) and homogenized at 4° C. using a Teflon-glass homogenizer. The homogenate was then divided into two parts, one was centrifuged at 16000×g for 15 min and the supernatant was used to assay activities of PP-2A and PP-1. The rest of the homogenate was diluted 1:1 with a phosphatase inhibitor cocktail (20 mM β-glycerophosphate, 2 mM Na3VO4 and 100 mM NaF, pH 7.0) and either used for Western blots or centrifuged at 16000×g for 15 min and the resulting supernatant used to determine the kinase activities.
Triplicate samples of each homogenate were applied to nitrocellulose membrane (Schleicher and Schuell, Keene, N.H.) and dried at 37° C.

CaMKII = CaMKII activity in extracts of treated hippocampal slice cultures; type: cell-based, rat
Protocol: (§2) Organotypic cultures of rat hippocampal slices were prepared from 20-30 day old Wistar rats and cultured with the interface method as described previously (Stoppini, et al. 1991; Bahr, et al. 1995; Zhongrin, et al. 2000). The rats were anesthetized with ketamine (100 mg/kg body weight) and decapitated and the hippocampi were dissected out and sliced into 400 um coronal sections by a McIllwain tissue chopper. Select slices with uninterrupted bright transparent neuronal layers were plated, 1-3 slices/filter, onto Millicell CM filters (Millipore, Bedford, Mass.). For the first 2 days in vitro (DIV) cultures were maintained in 25% horse serum, 50% Basal Media-Eagle (BEM), 25% Eagle's Balanced Salt Solution (EBSS), 25 mM HEPES, 1 mM glutamine, 28 mM glucose, pH 7.2, at 32° C. in a 5% CO2 humidified atmosphere. The slice cultures were then switched to 25% horse serum, 50% BEM and EBSS modified so that the potassium concentration was 2.66 mM, for another 5 DIV. After 7 DIV, the cultures were maintained in physiological potassium containing 5% horse serum medium at 35° C. for at least 20 days before any treatment was applied. When the slices were treated, the reagents were applied into the culture medium. At different time points, the slices collected with a brush were washed twice in homogenizing buffer (50 mM HEPES, pH 7.0, 10 mM β-merceptoethanol [BME], 1 mM EDTA, 1 mM EGTA, 0.1 mM phenylmethyl sulfonyl fluoride [PMSF], 2.0 mM benzamidine and 2.0 μg/ml each of aprotinin, leupeptin and pepstatin) and homogenized at 4° C. using a Teflon-glass homogenizer. The homogenate was then divided into two parts, one was centrifuged at 16000×g for 15 min and the supernatant was used to assay activities of PP-2A and PP-1. The rest of the homogenate was diluted 1:1 with a phosphatase inhibitor cocktail (20 mM β-glycerophosphate, 2 mM Na3VO4 and 100 mM NaF, pH 7.0) and either used for Western blots or centrifuged at 16000×g for 15 min and the resulting supernatant used to determine the kinase activities.
CaMKII activity was measured in 25 μl of buffer containing 50 mM HEPES, pH 7.5, 10 mM MgCl2, 2.0 mM CaCl2, 10 mM BME, 10 μg/ml calmodulin (CaM), 20 μM syntide (Sigma, St Louis Mo., USA), 0.06 mg/ml slice extract and 200 μM [γ^32P]ATP. The reaction was initiated by adding [γ32p] ATP. After incubation for 10 min at 30° C., 10 μl reaction mixture was removed and spotted on to phosphocellulose membrane. The membrane was then washed five times in 1% phosphoric acid to remove non-protein incorporated ^32P, dried and counted by Cerenkov radiation. The activity of PKA was determined as above except the reaction mixture contained 70 mM NaHPO4, pH 6.8, 14 mM MgCl2, 1.4 mM EDTA, 30 μM malantide (Sigma, St Louis, Mo., USA), 200 μM [γ^32p] ATP and 0.06 mg/ml slice extract.

MAPK = MAPK activity in extracts of treated hippocampal slice cultures; type: cell-based, rat
Protocol: as §1
Immobilized protein G (Pierce, Rockford, Ill.), 20 μl, was mixed in 50 mM Tris, pH 7.4, 150 mM NACl, 10 mM NaF, 1.0 mM Na3VO4, 2.0 mM EGTA, 1 mM PMSF, 5 μg/ml leupeptin, 5 μg/ml aprotinin, 2 μg/ml pepstatin, 25 μg/ml phosphoramidon. After incubation at 4° C. overnight, the mixture was centrifuged and the beads were washed three times. The beads were then resuspended in 50 mM Tris, pH 7.4, containing 10 mM MgCl2. MAPK substrate peptide (UBI, Lake Placid, N.Y.) was employed for the MAPK assay. […]

PP-2A = target: T1, PP-2A (Rattus norvegicus, UniProt P63331); assay: PP-2A activity in extracts of treated hippocampal slice cultures; type: cell-based
T1 construct: from tissue; host or cells: organotypic culture of adult rat hippocampal slices; 16,000xg extract
Protocol: as §2
Activities of PP-2A and PP-1 were assayed towards [^32P] phosphorylase-a as a substrate as described previously (Gong, et al. 1994). The phosphatase activity was assayed in 20 μl of reaction mixture containing 50 mM Tris, pH 7.0, 10 mM BME, 0.1 mM EDTA, 7.5 mM caffeine, 7.5 ng/μl [^32P]phosphorylase-a and 0.06 mg/ml slice culture extract. The reaction was started by adding ^32P-phosphorylase-a. After incubation for 30 min at 30° C., 7 μl of the reaction mixture was spotted on to 31 ETCHR chromatography paper which had been prespotted with 10 μl stop solution (4 mM ATP+20% TCA). Then the ^32p released was separated from the protein-incorporated ^32P by paper chromatography in 5% TCA and 0.2 M NaCl, paper strips dried, cut and counted by Cerenkov radiation. A PP-1 specific inhibitor, inhibitor-1 (Hitken, et al. 1982) was included in the assays for PP-2A activity. PP-1 activity was calculated by subtracting the PP-2A activity from the total phosphorylase-a phosphatase activity (PP-1/PP-2A) assayed in the absence of inhibitor-1.

T1 sequence (P63331 whole entry): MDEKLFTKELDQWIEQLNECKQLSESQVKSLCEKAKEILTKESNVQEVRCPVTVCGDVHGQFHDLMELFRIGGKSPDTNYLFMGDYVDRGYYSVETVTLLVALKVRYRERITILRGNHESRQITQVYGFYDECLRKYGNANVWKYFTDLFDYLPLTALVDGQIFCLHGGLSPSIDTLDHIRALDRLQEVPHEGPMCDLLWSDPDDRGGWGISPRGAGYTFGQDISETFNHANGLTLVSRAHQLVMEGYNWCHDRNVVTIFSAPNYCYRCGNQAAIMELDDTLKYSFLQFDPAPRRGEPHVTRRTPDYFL

N[C@@H](CCC(=O)O)C(=O)O [glutamate]
phosphorylation of tau at Ser-262 (tau): increased markedly | CaMKII activity as % of control (CaMKII; 0.3 mM glutamate, 1 h): ~180% | change in CaMKII activity (CaMKII; 0.3 mM glutamate, 1 h): marked increase | change in MAPK activity (MAPK; 0.3 mM glutamate, 1 h): did not induce any detectable change; also recorded: not accompanied by any changes; also recorded: without any effect | change in PP-2A activity (PP-2A; 0.3 mM glutamate, 1 h): did not induce any detectable change; also recorded: not accompanied by any changes; also recorded: without any effect

C[C@]12N[C@H](Cc3ccccc31)c1ccccc12 [MK801]
CaMKII activity after replacement of glutamate (CaMKII; after 0.3 mM glutamate, fresh medium with or without 10 μM Memantine or 15 μM MK801): restored the CaMKII activity to normal level | effect on MAP kinase activity (MAPK; after 0.3 mM glutamate, 10 μM Memantine or 15 μM MK801): no effect | effect on PP-2A activity (PP-2A; after 0.3 mM glutamate 1 h, 10 μM Memantine or 15 μM MK801): no effect
